Data set [1] concerns conscious rats. Put plainly: Determination of CNS toxicity: convulsions in conscious rats under intravenous infusion. Particulars: Table 5, comparative example compounds; for convulsion dose: minimum iv infusion rate at which partial or complete convulsions are observed; for cum conv dose: total amount of drug infused when convulsions are first observed.
The subject of data set [2] is conscious rats. The following applies: rat, in vivo, iv.

Where a name gives a salt, the structure may show the parent alone. Read-outs that look alike come from different tables or passages of the source.

The molecule `Cl.FC(F)(F)c1ccccc1CCO[C@H]1CCCC[C@H]1N1CCOCC1` (racemic) [Comparative Example Compound 42, (1R,2S)/(1S,2R)-2-(4-morpholinyl)-1-[(2-trifluoromethyl)-phenethoxy]-cyclohexane monohydrochloride] returned a convulsion dose with conscious rats [1] of 16 µmol/kg/min.

Turning to `COc1ccc(CCOC2CCCC[C@H]2N2CCOCC2)cc1OC` (stereo partly shown) [Comparative Example Compound 9, hydrochloride], in the data set on conscious rats [1], the convulsion dose worked out at 16 µmol/kg/min and the cum conv dose was determined as 113 µmol/kg. In the case of `COc1ccc(CCO[C@H]2CCCCC2N2CCC3(C2)OCCO3)cc1OC` (stereo partly shown) [Comparative Example Compound 10, monohydrochloride], in the data set on conscious rats [1], the convulsion dose amounted to 16 µmol/kg/min and the cum conv dose is 91.33 µmol/kg. On to `COc1ccc(CCO[C@H]2CCCCC2N2CCCC2)cc1OC` (stereo partly shown) [Comparative Example Compound 17, monohydrochloride], for which, in the data set on conscious rats [1], the convulsion dose was determined as 21.33 µmol/kg/min and the cum conv dose turned out to be 118 µmol/kg.

Turning to `COc1ccc(CCOC2CCCC[C@H]2N2CCC(=O)C2)cc1OC.Cl` (stereo partly drawn) [Comparative Example Compound 18, 1-{(1R,2R)/(1S,2S)-2-[2-(3,4-dimethoxyphenyl)-ethoxy]cyclohexyl}-pyrrolidin-3-one hydrochloride], in the data set with conscious rats [1], the convulsion dose came to 32 µmol/kg/min. In the case of `COc1ccc(CCOC2CCCC[C@H]2N2CCN(C(=O)Cc3ccc(OC)c(OC)c3)CC2)cc1OC.Cl.Cl` (stereo partly drawn) [Comparative Example Compound 22, 1-[(3,4-dimethoxyphenyl)acetyl]-4-{(1R,2R)/(1S,2S)-2-[2-(3,4-dimethoxyphenyl)-ethoxy]cyclohexyl}-piperazine hydrochloride], in the data set on conscious rats [1], the convulsion dose is 21.33 µmol/kg/min and the cum conv dose is 133 µmol/kg. The like results for `Cl.OC1CCN(C2CCCC[C@@H]2OCCc2c(Cl)cccc2Cl)C1` (stereo partly drawn) [Comparative Example Compound 23, (3R)/(3S)-1-{(1R,2R)/(1S,2S)-2-[2-(2,6-dichlorophenyl)-ethoxy]cyclohexyl}-pyrrolidin-3-ol hydrochloride] were, in that order, 8 µmol/kg/min and 65 µmol/kg. The corresponding values for `Cl.OC1CCN(C2CCCC[C@@H]2OCCc2ccccc2Br)C1` (stereo partly drawn) [Comparative Example Compound 24, (3R)/(3S)-1-{(1R,2R)/(1S,2S)-2-[2-(2-bromophenyl)-ethoxy]cyclohexyl}-pyrrolidin-3-ol hydrochloride] are 13 µmol/kg/min and 67 µmol/kg. The like results for `Cl.OC1CCN([C@@H]2CCCC[C@@H]2OCCc2cccc3ccccc23)C1` (stereo partly drawn) [Comparative Example Compound 25, (3R)/(3S)-1-{(1R,2S)/(1S,2R)-2-[2-(1-naphthyl)ethoxy]-cyclohexyl}-pyrrolidin-3-ol hydrochloride] were, in that order, 16 µmol/kg/min and 70 µmol/kg. `Cl.OC1CCN(C2CCCC[C@@H]2OCCc2cccc3ccccc23)C1` (stereo partly drawn) [Comparative Example Compound 26, (3R)/(3S)-1-{(1R,2R)/(1S,2S)-2-[2-(1-naphthyl)ethoxy]-cyclohexyl}-pyrrolidin-3-ol hydrochloride] had a convulsion dose with conscious rats [1] of 8 µmol/kg/min. On the same count and under the same terms, then `Cl.O[C@@H]1CCN(C2CCCC[C@@H]2OCCc2ccccc2C(F)(F)F)C1` (stereo partly shown) [Comparative Example Compound 27], with 16 µmol/kg/min; and `Cl.OC1CCN(C2CCCC[C@@H]2OCCn2ccc3ccccc32)C1` (stereo partly shown) [Comparative Example Compound 28], with 16 µmol/kg/min. In turn, `c1ccc2cc(CCO[C@H]3CCCCC3N3CCOCC3)ccc2c1` (stereo partly drawn) [Comparative Example Compound 30, (1R,2R)/(1S,2S)-[2-(4-morpholinyl)-1-(2-naphihenethoxy)]-cyclohexane monohydrochloride] displayed a cum conv dose in the data set on conscious rats [1] of 85 µmol/kg. As for `c1ccc2c(CCO[C@H]3CCCCC3N3CCOCC3)cccc2c1` (stereo partly drawn) [Comparative Example Compound 31, (1R,2R)/(1S,2S)-[2-(4-morpholinyl)-1-(1-naphthenethoxy)]-cyclohexane], in the data set on conscious rats [1], the convulsion dose came to 16 µmol/kg/min and the cum conv dose turned out to be 93 µmol/kg. The like results for `Brc1ccc(CCO[C@H]2CCCCC2N2CCOCC2)cc1` (stereo partly shown) [Comparative Example Compound 32] were, in that order, 12 µmol/kg/min and 91 µmol/kg. As for `c1ccc2cc(OCCO[C@H]3CCCCC3N3CCOCC3)ccc2c1` (stereo partly drawn) [Comparative Example Compound 33, (1R,2R)/(1S,2S)-[2-(4-morpholinyl)-1-[2-(2-naphthoxy)ethoxy]]-cyclohexane], the convulsion dose in the data set on conscious rats [1] came to 8 µmol/kg/min. In the data set on conscious rats [1], `Brc1ccc(OCCO[C@H]2CCCCC2N2CCOCC2)cc1` (stereo partly drawn) [Comparative Example Compound 34, (1R,2R)/(1S,2S)-[2-(4-morpholinyl)-1-[2-(4-bromophenoxy)-ethoxy]]cyclohexane] displayed a cum conv dose of 83 µmol/kg.

On to `COc1ccc(CCO[C@H]2CCCCC2N2CCOCC2)cc1OC` (stereo partly drawn) [Comparative Example Compound 35, (1R,2R)/(1S,2S)-[2-(4-morpholinyl)-1-(3,4-dimethoxy-phenethoxy)]-cyclohexane], for which the convulsion dose in the data set with conscious rats [1] was 16 µmol/kg/min. Consider `c1ccc2c(CCO[C@H]3CCCCC3N3CCOCC3)csc2c1` (stereo partly shown) [Comparative Example Compound 36], for which, in the data set on conscious rats [1], the convulsion dose is 8 µmol/kg/min and the cum conv dose worked out at 65 µmol/kg.

For the molecule `c1cc(CCO[C@H]2CCCCC2N2CCOCC2)c2ccsc2c1` (stereo partly shown) [Comparative Example Compound 37], in the data set on conscious rats [1], the convulsion dose was 8 µmol/kg/min and the cum conv dose came to 54 µmol/kg. Take `Brc1cccc(CCO[C@H]2CCCCC2N2CCOCC2)c1` (stereo partly drawn) [Comparative Example Compound 38, (1R,2R)/(1S,2S)-[2-(4-morpholinyl)-1-(3-bromophenethoxy)]-cyclohexane]: the convulsion dose with conscious rats [1] came to 16 µmol/kg/min. The molecule `Brc1ccccc1CCO[C@H]1CCCCC1N1CCOCC1` (stereo partly drawn) [Comparative Example Compound 39, (1R,2R)/(1S,2S)-[2-(4-morpholinyl)-1-(2-bromophenethoxy)]-cyclohexane] yielded a convulsion dose with conscious rats [1] of 16 µmol/kg/min. Same read-out and setting: the same measure for `Clc1ccc(CCO[C@H]2CCCCC2N2CCOCC2)cc1Cl` (stereo partly drawn) [Comparative Example Compound 40, (1R,2R)/(1S,2S)-2-(4-morpholinyl)-1-(3,4-dichlorophenethoxy)cyclo-hexane]: 16 µmol/kg/min. For the molecule `Cl.O=C1CCN(C2CCCC[C@@H]2OCCc2c(Cl)cccc2Cl)C1` (stereo partly drawn) [Comparative Example Compound 41, (1R,2R)/(1S,2S)-2-(3-ketopyrrolidinyl)-1-(2,6-dichlorophenethoxy)cyclo-hexane monohydrochloride], in the data set with conscious rats [1], the convulsion dose was 32 µmol/kg/min and the cum conv dose amounted to 190 µmol/kg. The corresponding values for `CC(=O)OC1CCN([C@@H]2CCCCC2OCCc2cccc3ccccc23)C1.Cl` (stereo partly drawn) [Comparative Example Compound 43, (1R,2R)/(1S,2S)-2-(3-acetoxypyrrolidinyl)-1-(1-naphthenethoxy)cyclo-hexane monohydrochloride] are 8 µmol/kg/min and 65 µmol/kg.

In the data set with conscious rats [1], `Cl.Clc1cccc(Cl)c1COC1CCCC[C@H]1N1CCOCC1` (stereo partly drawn) [Comparative Example Compound 44, (1R,2R)/(1S,2S)-2-(4-morpholinyl)-1-[(2,6-dichlorophenyl)methoxy]-cyclohexane monohydrochloride] showed a convulsion dose of 16 µmol/kg/min and a cum conv dose of 97 µmol/kg. In turn, `Cl.O=C1CCN([C@@H]2CCCCC2OCc2c(Cl)cccc2Cl)C1` (stereo partly drawn) [Comparative Example Compound 45, (1R,2R)/(1S,2S)-2-(3-ketopyrrolidinyl)-1-[(2,6-dichlorophenyl)methoxy]-cyclohexane monohydrochloride] yielded a convulsion dose with conscious rats [1] of 32 µmol/kg/min. For the molecule `Cl.OC1CCN(C2CCCC[C@@H]2OCCc2c(Cl)cccc2Cl)C1` (stereo partly drawn) [Comparative Example Compound 46, (1R,2R)/(1S,2S)-2-(3-hydroxypyrrolidinyl)-1-(2,6-dichlorophenethoxy)cyclo-hexane monohydrochloride], the convulsion dose in the data set on conscious rats [1] was 8 µmol/kg/min. Consider `Cl.O=C1CCN(C2CCCC[C@@H]2OCC(c2ccccc2)c2ccccc2)C1` (stereo partly drawn) [Comparative Example Compound 47, (1R,2R)/(1S,2S)-2-(3-ketopyrrolidinyl)-1-(2,2-diphenylethoxy)cyclo-hexane monohydrochloride], for which, in the data set with conscious rats [1], the convulsion dose was determined as 21 µmol/kg/min. On the same count and under the same terms, then `Cl.Clc1cccc(Cl)c1CCOC1CCCC[C@H]1N1CCSC1` (stereo partly drawn) [Comparative Example Compound 48, (1R,2R)/(1S,2S)-2-(3-thiazolidinyl)-1-(2,6-dichlorophenethoxy)cyclo-hexane monohydrochloride], with 43 µmol/kg/min. With `Cl.Clc1cccc(Cl)c1CCO[C@@H]1CCCC[C@H]1N1CCSC1` [Comparative Example Compound 48, (1R,2R)/(1S,2S)-2-(3-thiazolidinyl)-1-(2,6-dichlorophenethoxy)cyclo-hexane monohydrochloride], in the data set on conscious rats [1], the convulsion dose came to 8 µmol/kg/min and the cum conv dose turned out to be 44.4 µmol/kg. With `COc1ccc(CCO[C@H]2CCCC[C@@H]2N2CC[C@@H](O)C2)cc1OC.Cl` [Compound 2, (1S,2S)-2-[(3R)-Hydroxypyrrolidinyl]-1-(3,4-dimethoxyphenethoxy)-cyclohexane monohydrochloride], in the data set on conscious rats [2], the convulsion dose amounted to 64 µmol/kg/min. On to `COc1ccc(CCO[C@H]2CCCCC2N2CCC(O)C2)cc1OC` (stereo partly drawn) [Compound 3, (1R,2R)/(1S,2S)-2-[(3R)/(3S)-Hydroxypyrrolidinyl]-1-(3,4-dimethoxyphenethoxy)-cyclohexane monohydrochloride], for which the convulsion dose in the data set on conscious rats [2] was 64 µmol/kg/min. Same read-out and setting: the same measure for `COc1ccc(CCO[C@H]2CCCCC2N2CC[C@@H](O)C2)cc1OC.Cl` (stereo partly drawn) [Compound 4, (1R,2R)/(1S,2S)-2-[(3R)-Hydroxypyrrolidinyl]-1-(3,4-dimethoxyphenethoxy)-cyclohexane monohydrochloride]: 64 µmol/kg/min.

The values are drawn from patent US20070197632A1, “Aminocyclohexyl ether compounds and uses thereof” (Cardiome Pharma Corp, priority 2003, published 2007).
